According to US20040157738A1, “Novel oxygen containing fused cyclic derivatives and herbicidal, desiccant and defoliate compositions containing them” (ISHIHARA SANGYO KAISHA, LTD., priority 2003, published 2004):

Tests used:
Format in all cases: in vivo
[1] = tested on: barnyardgrass (Echinochloa crus-galli L.), ECHCG; assay: Test Example 2: post-emergence (foliage treatment) herbicidal activity (growth controlling degree); settings: 1.8-2.4 leaf stage; for pest or weed control at 63 g/ha / pest or weed control at 31 g/ha: Echinochloa crus-galli, 504 h; for pest or weed control at 63 g/ha: 63 g a.i./ha; for pest or weed control at 31 g/ha / growth controlling degree, ECHCG: 31 g a.i./ha
Excerpt: (§1) Upland field soil was put into a 1/170,000 ha pot, and seeds of various plants were sown. Then, when the plants reached predetermined leaf stages [I. barnyardgrass (Echinochloa crus-galli L.), ECHCG: 1.8-2.4 leaf stage, 2. crabgrass (Digitaria sanguinalis L.), DIGSA: 1.5-2.2 leaf stage, 3. green foxtail (Setaria viridis L.), SETVI: 1.7-2.5 leaf stage, 4. redroot pigweed (Amaranthus retroflexus L.), AMARE: 0.1-0.3 leaf stage, 5. prickly sida (Sida spinosa L.), SIDSP: 0.3-0.5 leaf stage, 6. velvetleaf (Abutilon theophrasti), ABUTH: 0.3-0.4 leaf stage, 7. common cocklebur (Xanthium strumarium L.), XANST: 0.2-0.6 leaf stage, 8. rice (Oryza sativa L.), ORYSA: 1.6-2.2 leaf stage, 9. wheat (Triticum aestivum L.), TRZAX: 2.8 leaf stage, 10. corn (Zea mays L.), ZEAMX: 2.2-2.5 leaf stage, 11. soybean (Glycine max Merr.), GLXMA: 0.2-0.3 leaf stage], a wettable powder or emulsifiable concentrate having the compound of the present invention formulated in accordance with a usual formulation method, was weighed so that the active ingredient would be a predetermined amount, and diluted with water in an amount of 500 L/ha. To the diluted solution, 0.1%(v/v) of an agricultural spreader was added. The herbicide adjusted was applied by a small size sprayer for foliage treatment. On the […] day after the application of the herbicide, the growth of the respective plants was visually observed, and the herbicidal effects were evaluated by growth controlling degrees (%) ranging from 0 (equivalent to the untreated control) to 100 (complete kill), whereby the results shown in Table 12, were obtained. Compound Nos. in Table 12 correspond to Compound Nos. in Table 1 to 7 given hereinbefore.

[2] = tested on: common cocklebur (Xanthium strumarium L.), XANST; assay: as above; settings: 0.2-0.6 leaf stage; for pest or weed control at 63 g/ha / pest or weed control at 31 g/ha: Xanthium strumarium, 504 h; for pest or weed control at 63 g/ha: 63 g a.i./ha; for pest or weed control at 31 g/ha / growth controlling degree, XANST: 31 g a.i./ha
Excerpt: as §1

[3] = tested on: prickly sida (Sida spinosa L.), SIDSP; assay: as above; settings: 0.3-0.5 leaf stage; for pest or weed control at 63 g/ha / pest or weed control at 31 g/ha: Sida spinosa, 504 h; for pest or weed control at 63 g/ha: 63 g a.i./ha; for pest or weed control at 31 g/ha / growth controlling degree, SIDSP: 31 g a.i./ha
Excerpt: as §1

[4] = tested on: green foxtail (Setaria viridis L.), SETVI; assay: as above; settings: 1.7-2.5 leaf stage; for pest or weed control at 63 g/ha / pest or weed control at 31 g/ha: Setaria viridis, 504 h; for pest or weed control at 63 g/ha: 63 g a.i./ha; for pest or weed control at 31 g/ha / growth controlling degree, SETVI: 31 g a.i./ha
Excerpt: as §1

[5] = tested on: wheat (Triticum aestivum L.), TRZAX; assay: as above; settings: 2.8 leaf stage
Excerpt: as §1

[6] = tested on: soybean (Glycine max Merr.), GLXMA; assay: as above; settings: 0.2-0.3 leaf stage; for pest or weed control at 63 g/ha / pest or weed control at 31 g/ha: Glycine max, 504 h; for pest or weed control at 63 g/ha: 63 g a.i./ha; for pest or weed control at 31 g/ha / growth controlling degree, GLXMA: 31 g a.i./ha
Excerpt: as §1

[7] = tested on: crabgrass (Digitaria sanguinalis L.), DIGSA; assay: as above; settings: 1.5-2.2 leaf stage; for pest or weed control at 63 g/ha / pest or weed control at 31 g/ha: Digitaria sanguinalis, 504 h, read-out: growth controlling degree, DIGSP; for pest or weed control at 63 g/ha: 63 g a.i./ha; for pest or weed control at 31 g/ha / growth controlling degree, DIGSP: 31 g a.i./ha
Excerpt: as §1

[8] = tested on: redroot pigweed (Amaranthus retroflexus L.), AMARE; assay: as above; settings: 0.1-0.3 leaf stage
Excerpt: as §1

[9] = tested on: velvetleaf (Abutilon theophrasti), ABUTH; assay: as above; settings: 0.3-0.4 leaf stage; for pest or weed control at 63 g/ha / pest or weed control at 31 g/ha: Abutilon theophrasti, 504 h; for pest or weed control at 63 g/ha: 63 g a.i./ha; for pest or weed control at 31 g/ha / growth controlling degree, ABUTH: 31 g a.i./ha
Excerpt: as §1

[10] = tested on: corn (Zea mays L.), ZEAMX; assay: as above; settings: 2.2-2.5 leaf stage; for plant injury at 63 g/ha / plant injury at 31 g/ha: Zea mays, 504 h; for plant injury at 63 g/ha: 63 g a.i./ha; for plant injury at 31 g/ha / growth controlling degree, ZEAMX: 31 g a.i./ha
Excerpt: as §1

[11] = tested on: rice (Oryza sativa L.), ORYSA; assay: as above; settings: 1.6-2.2 leaf stage; for plant injury at 63 g/ha / plant injury at 31 g/ha: Oryza sativa, 504 h; for plant injury at 63 g/ha: 63 g a.i./ha; for plant injury at 31 g/ha / growth controlling degree, ORYSA: 31 g a.i./ha
Excerpt: as §1

[12] = tested on: wheat (Triticum aestivum L.): TRZAX; assay: Test Example 1: pre-emergence herbicidal activity (growth controlling degree); settings: 20th to 21st day after application
Excerpt: Upland field soil was put into a 1/170,000 ha pot, and seeds of various plants [1. barnyardgrass (Echinochloa crus-galli L.): ECHCC, 2. crabgrass (Digitaria sanguinalis L.): DIGSA, 3. green foxtail (Setaria viridis L.): SETVI, 4. redroot pigweed (Amaranthus retroflexus L.): AMARE, 5. prickly sida (Sida spinosa L.): SIDSP, 6. velvetleaf (Abutilon theophrasti): ABUTH, 7. common cocklebur (Xanthium strumarium L.): XANST, 8. rice (Oryza sativa L.): ORYSA, 9. wheat (Triticum aestivum L.): TRZAX, 10. corn (Zea mays L.): ZEAMX, 11. soybean (Glycine max Merr.): GLXMA] were sown. Then, one day after the sowing, a wettable powder or emulsifiable concentrate having the compound of the present invention formulated in accordance with a usual formulation method, was weighed so that the active ingredient would be a predetermined amount, and diluted with water in an amount of 500 L/ha. The herbicide adjusted was applied by a small size sprayer for pre-emergence treatment. On the 20th to 21st day after the application of the herbicide, the growth of the respective plants was visually observed, and the herbicidal effects were evaluated by growth controlling degrees (%) ranging from 0 (equivalent to the untreated control) to 100 (complete kill), whereby the results shown in Table 11, were obtained. Compound Nos. in Table 11 correspond to Compound Nos. in Table 1 to 7 given hereinbefore.

SMILES: Cn1nc(-c2c(F)cc(Cl)c3c2CCCO3)c(Cl)c1C(F)(F)F [Compound 1-2, 4-chloro-3-(8-chloro-6-fluoro-3,4-dihydro-2H-1-benzopyran-5-yl)-1-methyl-5-(trifluoromethyl)-1H-pyrazole]
- pest or weed control at 63 g/ha [1]: 98%
- pest or weed control at 63 g/ha [2]: 100%
- pest or weed control at 63 g/ha [3]: 98%
- pest or weed control at 63 g/ha [4]: 70%
- growth controlling degree, TRZAX ([5]; 63 g a.i./ha): 30%
- pest or weed control at 63 g/ha [6]: 60%
- pest or weed control at 63 g/ha [7]: 60%
- growth controlling degree, AMARE ([8]; 63 g a.i./ha): 100%
- pest or weed control at 63 g/ha [9]: 100%
- plant injury at 63 g/ha [10]: 60%
- plant injury at 63 g/ha [11]: 50%

SMILES: CC1CCc2c(c(Cl)cc(F)c2-c2nn(C)c(C(F)(F)F)c2Cl)O1 (stereo not shown) [Compound 1-8]
- pest or weed control at 31 g/ha [1]: 0%
- pest or weed control at 31 g/ha [2]: 70%
- pest or weed control at 31 g/ha [3]: 80%
- pest or weed control at 31 g/ha [4]: 30%
- pest or weed control at 31 g/ha [6]: 40%
- pest or weed control at 31 g/ha [7]: 10%
- growth controlling degree, AMARE ([8]; 31 g a.i./ha): 95%
- pest or weed control at 31 g/ha [9]: 100%
- plant injury at 31 g/ha [10]: 50%
- plant injury at 31 g/ha [11]: 40%

SMILES: Cn1nc(-c2c(F)cc(Cl)c3c2CCCO3)c(Cl)c1OC(F)F [Compound 1-33, 4-chloro-3-(8-chloro-6-fluoro-3,4-dihydro-2H-1-benzopyran-5-yl)-5-(difluoromethoxy)-1-methyl-1H-pyrazole]
- pest or weed control at 63 g/ha [1]: 100%
- pest or weed control at 63 g/ha [2]: 100%
- pest or weed control at 63 g/ha [3]: 100%
- pest or weed control at 63 g/ha [4]: 100%
- growth controlling degree, TRZAX ([5]; 63 g a.i./ha): 98%
- pest or weed control at 63 g/ha [6]: 100%
- pest or weed control at 63 g/ha [7]: 100%
- growth controlling degree, AMARE ([8]; 63 g a.i./ha): 100%
- pest or weed control at 63 g/ha [9]: 100%
- plant injury at 63 g/ha [10]: 100%
- plant injury at 63 g/ha [11]: 98%
- growth controlling degree, TRZAX ([12]; 125 g a.i./ha): 70%

SMILES: CC1CCc2c(c(Cl)cc(F)c2-c2nn(C)c(OC(F)F)c2Cl)O1 (stereo not shown) [Compound 1-39]
- pest or weed control at 31 g/ha [1]: 100%
- pest or weed control at 31 g/ha [2]: 100%
- pest or weed control at 31 g/ha [3]: 100%
- pest or weed control at 31 g/ha [4]: 100%
- pest or weed control at 31 g/ha [6]: 100%
- pest or weed control at 31 g/ha [7]: 100%
- growth controlling degree, AMARE ([8]; 31 g a.i./ha): 100%
- pest or weed control at 31 g/ha [9]: 100%
- plant injury at 31 g/ha [10]: 98%
- plant injury at 31 g/ha [11]: 98%

SMILES: Cn1nc(-c2c(F)cc(Cl)c3c2CCC(c2ccccc2)O3)c(Cl)c1OC(F)F (stereo not shown) [Compound 1-42]
- pest or weed control at 63 g/ha [1]: 60%
- pest or weed control at 63 g/ha [2]: 100%
- pest or weed control at 63 g/ha [3]: 100%
- pest or weed control at 63 g/ha [4]: 98%
- pest or weed control at 63 g/ha [6]: 60%
- pest or weed control at 63 g/ha [7]: 50%
- growth controlling degree, AMARE ([8]; 63 g a.i./ha): 100%
- pest or weed control at 63 g/ha [9]: 100%
- plant injury at 63 g/ha [10]: 30%
- plant injury at 63 g/ha [11]: 70%
- growth controlling degree, TRZAX ([12]; 250 g a.i./ha): 0%

SMILES: Fc1cc(Cl)c2c(c1-c1nn3c(c1Cl)CCCC3)CCCO2 [Compound 1-79, 3-chloro-2-(8-chloro-6-fluoro-3,4-dihydro-2H-1-benzopyran-5-yl)-4,5,6,7-tetrahydro-pyrazolo[1,5-a]pyridine]
- pest or weed control at 31 g/ha [1]: 95%
- pest or weed control at 31 g/ha [2]: 100%
- pest or weed control at 31 g/ha [3]: 98%
- pest or weed control at 31 g/ha [4]: 100%
- pest or weed control at 31 g/ha [6]: 70%
- pest or weed control at 31 g/ha [7]: 40%
- growth controlling degree, AMARE ([8]; 31 g a.i./ha): 90%
- pest or weed control at 31 g/ha [9]: 100%
- plant injury at 31 g/ha [10]: 50%
- plant injury at 31 g/ha [11]: 50%
- growth controlling degree, TRZAX ([12]; 250 g a.i./ha): 10%

SMILES: CC1CCc2c(c(Cl)cc(F)c2-c2nn3c(c2Cl)CCCC3)O1 (stereo not shown) [Compound 1-85]
- growth controlling degree, ECHCG [1]: 70%
- growth controlling degree, XANST [2]: 100%
- growth controlling degree, SIDSP [3]: 95%
- growth controlling degree, SETVI [4]: 80%
- growth controlling degree, GLXMA [6]: 50%
- growth controlling degree, DIGSP [7]: 40%
- growth controlling degree, AMARE ([8]; 31 g a.i./ha): 70%
- growth controlling degree, ABUTH [9]: 100%
- growth controlling degree, ZEAMX [10]: 50%
- growth controlling degree, ORYSA [11]: 40%

SMILES: CCCCCC1CCc2c(c(Cl)cc(F)c2-c2nn(C)c(OC(F)F)c2Cl)O1 (stereo not shown) [Compound 1-101]
- growth controlling degree, ECHCG [1]: 100%
- growth controlling degree, XANST [2]: 100%
- growth controlling degree, SIDSP [3]: 100%
- growth controlling degree, SETVI [4]: 100%
- growth controlling degree, TRZAX ([5]; 31 g a.i./ha): 30%
- growth controlling degree, GLXMA [6]: 70%
- growth controlling degree, DIGSP [7]: 100%
- growth controlling degree, AMARE ([8]; 31 g a.i./ha): 100%
- growth controlling degree, ABUTH [9]: 100%
- growth controlling degree, ZEAMX [10]: 70%
- growth controlling degree, ORYSA [11]: 60%
- growth controlling degree, TRZAX ([12]; 125 g a.i./ha): 20%

SMILES: Fc1cc(Cl)c2c(c1-c1ncc(C(F)(F)F)cc1Cl)CCCO2 [Compound 7-2, 3-chloro-2-(8-chloro-6-fluoro-3,4-dihydro-2H-1-benzopyran-5-yl)-5-(trifluoromethyl)-pyridine]
- pest or weed control at 63 g/ha [1]: 80%
- pest or weed control at 63 g/ha [2]: 70%
- pest or weed control at 63 g/ha [3]: 100%
- pest or weed control at 63 g/ha [4]: 100%
- pest or weed control at 63 g/ha [6]: 60%
- pest or weed control at 63 g/ha [7]: 95%
- pest or weed control at 63 g/ha [9]: 100%
- plant injury at 63 g/ha [10]: 90%
- plant injury at 63 g/ha [11]: 60%
- growth controlling degree, TRZAX ([12]; 250 g a.i./ha): 50%
